The values below come from ChEMBL document CHEMBL5244218, “Quinolone derivatives and their activities against methicillin-resistant Staphylococcus aureus (MRSA)” (Eur J Med Chem, 2018).

The subject of data set [1] is Staphylococcus aureus. Briefly: Antibacterial activity against methicillin-resistant Staphylococcus aureus isolates by two fold dilution method. Format: functional.
Data set [2] deals with Staphylococcus aureus. The data set is described as follows: Antibacterial activity against methicillin-resistant Staphylococcus aureus. Format: functional.
Data set [3] concerns Staphylococcus aureus. Briefly: Potency index, ratio of norfloxacin MIC to test compound MIC for antimicrobial activity against methicillin-resistant Staphylococcus aureus. In kind it is functional.
Data set [4] has as its system Staphylococcus aureus. The data set is described as follows: Antibacterial activity against methicillin-resistant Staphylococcus aureus infected in mouse model assessed as reduction in log10CFU in lungs (reference value: 8.47 log10CFU). Format: functional.
Data set [5] concerns Staphylococcus aureus. The data set is described as follows: Antimicrobial activity against methicillin-resistant Staphylococcus aureus MR101 Mu50 measured after 18 hrs by microplate dilution method. In kind it is functional.
Data set [6] has as its system Staphylococcus aureus. Briefly: Antibacterial activity against methicillin-resistant Staphylococcus aureus infected in mouse model assessed as increase in survival rate relative to control. In kind it is functional.
Data set [7] deals with Staphylococcus aureus. Briefly: Antimicrobial activity against methicillin-resistant Staphylococcus aureus by agar dilution method. Format: functional. A general note: In agar dilution, organisms are placed on agar that contains the substance at set levels.
Data set [8] concerns Staphylococcus aureus. Briefly: Antimicrobial activity against methicillin-resistant Staphylococcus aureus assessed as inhibition of bacterial growth by agar dilution method. In kind it is functional.
The test system of data set [9] is Staphylococcus aureus. Briefly: Antimicrobial activity against methicillin-resistant Staphylococcus aureus assessed as inhibition of microbial growth at 15.63 ug/ml relative to control. Also on record: scale not given: the % may be the effect or the level left. In kind it is functional. The following applies: dose 15.63 µg/ml.
A short description of data set [10]: Permeability coefficient of compound. In kind it is ADME. The conditions noted are these: not told; read-out: Kp (converted).
The test system of data set [11] is Staphylococcus aureus. Briefly: Antimicrobial activity against methicillin-resistant Staphylococcus aureus isolates by agar dilution method. In kind it is functional.
The test system of data set [12] is Staphylococcus aureus. The data set is described as follows: Antimicrobial activity against hospital acquired methicillin-resistant Staphylococcus aureus incubated for 24 hrs by CLSI protocol based method. Format: functional.
Data set [13] deals with Staphylococcus aureus. The data set is described as follows: Antimicrobial activity against community acquired methicillin-resistant Staphylococcus aureus incubated for 24 hrs by CLSI protocol based method. Format: functional.
In data set [14] the test system is Staphylococcus aureus. Briefly: Potency index, ratio of ciprofloxacin MIC to test compound MIC for antimicrobial activity against methicillin-resistant Staphylococcus aureus clinical isolate 1. Format: functional.
In data set [15] the test system is Staphylococcus aureus. Briefly: Potency index, ratio of ciprofloxacin MIC to test compound MIC for antimicrobial activity against methicillin-resistant Staphylococcus aureus clinical isolate 2. Format: functional.
The subject of data set [16] is Staphylococcus aureus. The data set is described as follows: Potency index, ratio of norfloxacin MIC to test compound MIC for antimicrobial activity against methicillin-resistant Staphylococcus aureus clinical isolate 2. In kind it is functional.
Data set [17] deals with Staphylococcus aureus. The data set is described as follows: Antimicrobial activity against methicillin-resistant Staphylococcus aureus clinical isolate 2 measured after 18 hrs by agar dilution method. In kind it is functional.
Data set [18] concerns Staphylococcus aureus. The data set is described as follows: Antimicrobial activity against methicillin-resistant Staphylococcus aureus clinical isolate 1 measured after 18 hrs by agar dilution method. In kind it is functional.
Data set [19] has as its system Staphylococcus aureus. Briefly: Potency index, ratio of norfloxacin MIC to test compound MIC for antimicrobial activity against methicillin-resistant Staphylococcus aureus clinical isolate 1. In kind it is functional.
Data set [20] relates to Staphylococcus aureus. Briefly: Antimicrobial activity against methicillin-resistant Staphylococcus aureus Mi300 by microbroth dilution method. In kind it is functional.
The test system of data set [21] is Staphylococcus aureus. The data set is described as follows: Antimicrobial activity against methicillin-resistant Staphylococcus aureus incubated for 18 hrs by Alamar blue staining based analysis. In kind it is functional. On the technique in general: The colour change of resazurin is a common sign of viable cells or microbes.
In data set [22] the test system is Staphylococcus aureus. Briefly: Antimicrobial activity against methicillin-resistant Staphylococcus aureus Mi339 by microbroth dilution method. Format: functional. (In broth dilution the organism is exposed to a series of concentrations in liquid medium.)
The test system of data set [23] is Staphylococcus aureus. The data set is described as follows: Antimicrobial activity against methicillin-resistant Staphylococcus aureus. In kind it is functional, organism-based.
Data set [24] deals with Staphylococcus aureus. The data set is described as follows: Bactericidal activity against methicillin-resistant Staphylococcus aureus assessed as inhibition of microbial growth. Format: functional.
For data set [25], the system named is Staphylococcus aureus. Briefly: Antibacterial activity against methicillin-resistant Staphylococcus aureus assessed as inhibition of microbial growth. Format: functional.
Data set [26] has as its system Staphylococcus aureus. Briefly: Antimicrobial activity against methicillin-resistant Staphylococcus aureus assessed as inhibition of microbial growth. Format: functional.
Data set [27] has as its system Staphylococcus aureus. The data set is described as follows: Potency index, ratio of ciprofloxacin MIC to test compound MIC for antimicrobial activity against methicillin-resistant Staphylococcus aureus. Format: functional.
The nature of data set [28]: Cytotoxicity against human HEK293 cells incubated for 72 hrs by MTT assay. In kind it is toxicity, cell-based.

The structures appear in SMILES notation. ≈ marks a conversion by molar mass, not a printed value.

In the data set on Staphylococcus aureus [1], `CC1COc2c(N3CCN(C)CC3)c(F)cc3c(=O)c(C(=O)O)cn1c23` (centres undefined) [OFLOXACIN] had an MIC of 1.56 µg/mL (≈ 4.32 µM).

As for `O=C(O)c1cn(CC(O)Cn2cncn2)c2ccc(F)cc2c1=O` (centres undefined), in the data set with Staphylococcus aureus [2], the MIC was 1 µg/mL (≈ 3.01 µM). Also, the Ratio in the data set with Staphylococcus aureus [3] is given as 8.

On to `CC(=O)N[C@@H]1[C@H](Oc2c3cc4cc2Oc2ccc(cc2Cl)[C@@H](O[C@@H]2O[C@@H](CO)[C@@H](O)[C@H](O)[C@@H]2NC(C)=O)[C@@H]2NC(=O)[C@H](NC(=O)[C@@H]4NC(=O)[C@H]4NC(=O)[C@@H](Cc5ccc(c(Cl)c5)O3)NC(=O)[C@H](N)c3ccc(O)c(c3)Oc3cc(O)cc4c3)c3ccc(O)c(c3)-c3c(O[C@H]4O[C@H](CO)[C@@H](O)[C@@H](O)[C@@H]4O)cc(O)cc3[C@@H](C(=O)O)NC2=O)O[C@@H](CO)[C@@H](O)[C@@H]1O`, for which the results for the Activity in the data set on Staphylococcus aureus [4] and in the data set on Staphylococcus aureus [6] were 7.36 log10CFU and 45%, respectively. The same compound registered an MIC in the data set on Staphylococcus aureus [5] of 0.5 µg/mL (≈ 0.283 µM).

Consider `CNCC1(C)CN(c2nc3c(cc2F)c(=O)c(C(=O)O)cn3C2CC2)CC/C1=N\OC` (centres undefined), for which, in the data set on Staphylococcus aureus [7], inhibition of growth (MIC) required 64 µg/mL (≈ 148 µM).

Take `C[C@H]1CCc2c(N3CCC(O)CC3)c(F)cc3c(=O)c(C(=O)O)cn1c23.N=C(N)NCCC[C@H](N)C(=O)O.O.O.O.O`: the MIC with Staphylococcus aureus [8] was found to be 1 µg/mL.

On to `CCOC(=O)c1cn(CC(O)Cn2cncn2)c2c(Cl)cc(Cl)cc2c1=O` (centres undefined), for which the MIC in the data set with Staphylococcus aureus [2] came to 1 µg/mL (≈ 2.43 µM). For the same compound, in the data set with Staphylococcus aureus [3], the Ratio is listed as 8.

For the compound `CCCOC(=O)c1cn(C2CC2)c2cc(N3CCNCC3)ccc2c1=O`, the Activity in the data set with Staphylococcus aureus [9] came out at 80%. Further, the Papp in data set [10] is 0.195 ×10⁻⁶ cm/s.

Regarding `CN[C@H](CC(C)C)C(=O)N[C@H]1C(=O)N[C@@H](CC(N)=O)C(=O)N[C@H]2C(=O)N[C@H]3C(=O)N[C@H](C(=O)N[C@H](C(=O)O)c4cc(O)cc(O)c4-c4cc3ccc4O)[C@H](O)c3ccc(c(Cl)c3)Oc3cc2cc(c3O[C@@H]2O[C@H](CO)[C@@H](O)[C@H](O)[C@H]2O[C@H]2C[C@](C)(N)[C@H](O)[C@H](C)O2)Oc2ccc(cc2Cl)[C@H]1O` [VANCOMYCIN], the Activity in the data set on Staphylococcus aureus [4] amounted to 7.99 log10CFU; in the data set on Staphylococcus aureus [6], 45%.

`CCn1cc(C(=O)O)c(=O)c2cc(F)c(N3CCN(C)CC3)cc21` [PEFLOXACIN] displayed a minimal inhibitory concentration (MIC) in the data set with Staphylococcus aureus [1] of 1.56 µg/mL (≈ 4.68 µM).

For `CCOC(=O)c1ccc(NC2CN(c3c(F)cc4c(=O)c(C(=O)O)cn(C5CC5)c4c3F)C2)cc1`, the MIC with Staphylococcus aureus [11] stood at 0.016 µg/mL (≈ 0.0331 µM).

On to `Cc1c(N2CC(NC(C)C)C2)c(F)cc2c(=O)c(C(=O)O)cn(-c3nc(N)c(F)cc3F)c12`, for which the MIC90 in the data set on Staphylococcus aureus [12] and against Staphylococcus aureus [13] was 0.06 µg/mL (≈ 0.13 µM) in each case.

For `O=C(O)c1cn(C2CC2)c2cc(N3CCN(C/C(=N/O)c4cccs4)CC3)c(F)cc2c1=O`, the Ratio in the data set on Staphylococcus aureus [14] came out at 2; with Staphylococcus aureus [15], 2; in the data set on Staphylococcus aureus [16] it was 4; in the data set on Staphylococcus aureus [19] it was 4. The MIC against Staphylococcus aureus [17] and against Staphylococcus aureus [18] was 0.19 µg/mL (≈ 0.404 µM) in each case.

Take `O=C(O)c1cn(C2CC2)c2cc(N3CCNCC3)c(F)cc2c1=O` [CIPROFLOXACIN]: the MIC was 0.25 µg/mL (≈ 0.754 µM) with Staphylococcus aureus [20]; 64 µg/mL (≈ 193 µM) against Staphylococcus aureus [21]; 32 µg/mL (≈ 96.6 µM) in the data set on Staphylococcus aureus [22]; 0.5 µg/mL (≈ 1.51 µM) against Staphylococcus aureus [23]; 0.06 µg/mL in the data set with Staphylococcus aureus [25]. The MBC with Staphylococcus aureus [24] came out at 0.031 µg/mL.

`O=C(O)c1c(=O)c2cc(F)c(N3CCOCC3)c3c2n2c(csc12)CN3` had an MIC with Staphylococcus aureus [1] of 0.05 µg/mL (≈ 0.133 µM).

Take `C[C@@H](O)[C@H]1C(=O)N2C(C(=O)O)=C(COC(=O)N3CCN(c4cc5c(cc4F)c(=O)c(C(=O)O)cn5C4CC4)CC3)S[C@H]12`: the MIC against Staphylococcus aureus [20] and against Staphylococcus aureus [22] was 0.06 µg/mL (≈ 0.0996 µM) in each case.

In the data set with Staphylococcus aureus [7], `CCO/N=C1\CCN(c2nc3c(cc2F)c(=O)c(C(=O)O)cn3C2CC2)CC1(C)CNC` (centres undefined) displayed an MIC of 64 µg/mL (≈ 144 µM).

For `O=C(O)c1cn(C2CC2)c2c(c1=O)C=C(F)C1N=NC(c3ccccc3F)=CN21` (centres undefined), in the data set on Staphylococcus aureus [26], the MIC stood at 0.25 µg/mL. Further, the Ratio in the data set with Staphylococcus aureus [27] came out at 32.

With `O=C(O)c1cn(C2CC2)c2cc(N3CCN(Cc4cccc(CN5CCN(c6ncc7c(=O)c(C(=O)O)cn(C8CC8)c7n6)CC5)c4)CC3)ccc2c1=O`, the Ratio in the data set with Staphylococcus aureus [27] is over 16. In the data set with Staphylococcus aureus [23], this compound came in with an MIC of under 0.03 µg/mL.

The compound `COc1ccc(Cn2c(-c3ccccc3O)nn(CN3CCN(c4c(F)cc5c(=O)c(C(=O)O)cn(C6CC6)c5c4Cl)CC3)c2=S)cc1` registered an EC50 at 72 h in [28] of 50.5 µM.

Usually MIC stands for the lowest concentration found to suppress growth. In general, MIC90 refers to the lowest concentration that inhibits either 90% of growth or 90% of the strains tested, depending on the study. What is called MBC is the lowest tested concentration that kills the bacteria rather than only halting them. The term EC50 denotes the midpoint of the concentration-response curve.
